Experimental data published in publication PMC10199020 (Nature Communications, 2023).
“Also recorded” adds a separate entry of the source. Bridge positions count the residues as written; N and C are the ends. Square brackets hold non-standard residues; d marks the D form. Peptide text beside a SMILES is read from it. * marks the point of attachment. 5TAMRA = CN(C)c1ccc2c(c1)Oc1cc(N(C)C)ccc1C21OC(=O)c2cc(C(=O)*)ccc21; 2Nal = N[C@@H](Cc1ccc2ccccc2c1)C(=O)O; Pen = CC(C)(S)[C@H](N)C(=O)O; Aib = CC(C)(N)C(=O)O

Columns and labels:
NL-IL12Rβ1 with IL23R = target: T1, NL-IL12Rβ1 with IL23R (Homo sapiens, UniProt Q5VWK5); experiment: P630-TMR NanoBRET binding assay, NL-IL12Rβ1 with IL23R; settings: for BRET ratio, Specific (Mean) / BRET ratio, Non-specific (Mean): Fig. 2e; for BRET ratio, Non-specific (Mean): with 10 μM P630; for % maximum BRET ratio (Mean): Figure 2 sheet Panel g; for % maximum BRET ratio (Mean) / BRET ratio with non-specific binding subtracted (Mean): IL23R + NL-IL12RB1; for BRET ratio with non-specific binding subtracted (Mean): Figure 2 sheet Panels f, h
T1 construct: untagged full-length IL23R could be measured in the membranes of living cells; expressed in transfected cells; host or cells: HEK293T, transient transfection
T1 sequence (Q5VWK5 24-629, other chains not shown): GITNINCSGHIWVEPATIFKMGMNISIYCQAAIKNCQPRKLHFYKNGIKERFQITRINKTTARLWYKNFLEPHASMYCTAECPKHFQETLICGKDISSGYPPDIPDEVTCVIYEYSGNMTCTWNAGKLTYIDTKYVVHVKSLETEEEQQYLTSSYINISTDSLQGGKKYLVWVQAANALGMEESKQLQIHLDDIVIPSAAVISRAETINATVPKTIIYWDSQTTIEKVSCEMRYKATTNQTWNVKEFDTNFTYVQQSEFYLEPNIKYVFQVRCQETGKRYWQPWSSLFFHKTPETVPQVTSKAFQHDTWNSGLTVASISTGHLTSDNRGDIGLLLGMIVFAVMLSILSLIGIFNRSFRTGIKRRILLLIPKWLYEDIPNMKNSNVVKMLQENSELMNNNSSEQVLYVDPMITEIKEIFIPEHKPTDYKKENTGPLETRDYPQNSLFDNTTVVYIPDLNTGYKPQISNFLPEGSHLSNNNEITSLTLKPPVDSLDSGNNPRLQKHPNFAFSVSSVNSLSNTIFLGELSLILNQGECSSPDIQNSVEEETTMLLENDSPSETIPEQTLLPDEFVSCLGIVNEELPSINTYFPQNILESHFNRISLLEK
Excerpt: A standard curve was used to predict the expression level of NanoLuc labelled receptor in each experiment (Supplementary Fig. 1).
(§1) Fig. 2 Creation and characterisation of a fluorescent cyclic peptide probe for IL23R. […] Data are normally mean ± SEM from five independent experiments. Details on absolute number of data points included for each concentration are provided in the associated Source Data file. In each individual saturation experiment triplicate determinations were normally made for total binding and duplicate measurements were made for non-specific binding.
(§2) Media was removed from white 96-well microplates containing transfected cells and replaced with fluoroprobe in the presence or absence of antagonist in 50 μL Hanks Balanced Salt Solution (HBSS) with 1 mg/mL BSA (Merck). After a 1-hour incubation at 37 °C without CO2, 5 μL of HBSS containing 77 μM furimizine was added to each well (final concentration 7 μM), the plate incubated for 5-minutes and the BRET signal measured using a PheraStar FS plate reader (BMG Labtech; data acquisition software version 5.41; MARS analysis software version 3.32) with a 450 ± 30 nm and >550 nm long pass filters.
Ligand binding data were fitted with the equation:2 BRETratio=Bmax[A]/([A]+KD)+(BA+C). Where ‘Bmax’ is the maximum specific binding BRET signal, ‘[A]’ is fluorescent probe concentration, ‘B’ is the non-specific binding component’s slope and ‘C’ is the Y intercept.
(§3) Specific binding data was generated by subtracting the BRET values gained in the presence of an excess of unlabelled probe from the BRET ratios gained in the absence of unlabelled probe. Specific binding data were fit using the equation:3 Y=Bmax[B]/(B+KD) where ‘Bmax’ is the maximum specific binding signal of the curve and ‘[B]’ is the concentration of fluorescent probe.

NL-IL12Rβ1 = target: T2, NL-IL12Rβ1 (Homo sapiens, UniProt P42701); experiment: P630-TMR NanoBRET binding assay, NL-IL12Rβ1 alone; settings: for Specific binding BRET ratio (Mean): Fig. 2h, NL-IL12RB1
T2 construct: expressed in transfected cells; host or cells: HEK293T, transient transfection
Excerpt: as §1
Finally, we utilised a NanoBiT BRET system in which a complemented luciferase with fragments bound to both receptor subunits (Fig. 3) can be used as a BRET donor to measure interactions with binary receptor complexes.
as §2, §3

C115Y mutated IL23R = target: T3, C115Y mutated IL23R (Homo sapiens, UniProt P42701+Q5VWK5, C115Y); experiment: P630-TMR NanoBRET binding assay, C115Y mutant; settings: for Mean NanoBRET binding signal (Figure 7 panel b): NL-IL23R (C115Y) + IL12Rβ1
T3 construct: expressed in transfected cells; host or cells: HEK293T, transient transfection
T3 sequence (Q5VWK5 24-629 C115Y, other chains not shown): as the sequence (Q5VWK5 24-629, other chains not shown) above, with C92Y counted along it
Method: Data are mean ± SEM from five (C115Y) or four (wildtype) independent experiments conducted in duplicate or triplicate. Details on absolute number of data points included for each concentration are provided in the associated Source Data file.
as §2, with “filters. P630-TMR binding assays were normalised to a final DMSO concentration of 0.1%.” for “filters.”

[1] = NL-IL12Rβ1 and IL23R, P630-TMR 111.111 nM
[2] = NL-IL12Rβ1 and IL23R, P630-TMR 1000 nM
[3] = NL-IL12Rβ1 and IL23R, P630-TMR 3000 nM

BRET ratio, Specific (Mean) (NL-IL12Rβ1 with IL23R; [1]): 0.269
BRET ratio, Specific (Mean) (NL-IL12Rβ1 with IL23R; [2]): 0.2823
BRET ratio, Specific (Mean) (NL-IL12Rβ1 with IL23R; [3]): 0.2959
BRET ratio, Non-specific (Mean) (NL-IL12Rβ1 with IL23R; NL-IL12Rβ1 and IL23R, P630-TMR 0.457247 nM): 0.245
BRET ratio, Non-specific (Mean) (NL-IL12Rβ1 with IL23R; NL-IL12Rβ1 and IL23R, P630-TMR 1.37174 nM): 0.2494
BRET ratio, Non-specific (Mean) (NL-IL12Rβ1 with IL23R; NL-IL12Rβ1 and IL23R, P630-TMR 4.11523 nM): 0.2477
BRET ratio, Non-specific (Mean) (NL-IL12Rβ1 with IL23R; NL-IL12Rβ1 and IL23R, P630-TMR 12.3457 nM): 0.2499
BRET ratio, Non-specific (Mean) (NL-IL12Rβ1 with IL23R; NL-IL12Rβ1 and IL23R, P630-TMR 37.037 nM): 0.2505
BRET ratio, Non-specific (Mean) (NL-IL12Rβ1 with IL23R; [1]): 0.2497
BRET ratio, Non-specific (Mean) (NL-IL12Rβ1 with IL23R; [2]): 0.2599
BRET ratio, Non-specific (Mean) (NL-IL12Rβ1 with IL23R; [3]): 0.2729
BRET ratio, Non-specific (Mean) (NL-IL12Rβ1 with IL23R; NL-IL12Rβ1 and IL23R, P630-TMR […]): 0.2519
% maximum BRET ratio (Mean) (NL-IL12Rβ1 with IL23R; P630-TMR 0.457247 nM): 20.2943%
% maximum BRET ratio (Mean) (NL-IL12Rβ1 with IL23R; P630-TMR 1.37174 nM): 3.037%
% maximum BRET ratio (Mean) (NL-IL12Rβ1 with IL23R; P630-TMR 4.11523 nM): 30.2039%
% maximum BRET ratio (Mean) (NL-IL12Rβ1 with IL23R; P630-TMR 12.3457 nM): 28.4128%
% maximum BRET ratio (Mean) (NL-IL12Rβ1 with IL23R; P630-TMR 37.037 nM): 44.6085%
% maximum BRET ratio (Mean) (NL-IL12Rβ1 with IL23R; P630-TMR 111.111 nM): 87.2944%
% maximum BRET ratio (Mean) (NL-IL12Rβ1 with IL23R; P630-TMR 1000 nM): 109.773%
% maximum BRET ratio (Mean) (NL-IL12Rβ1 with IL23R; P630-TMR 3000 nM): 100.001%
BRET ratio with non-specific binding subtracted (Mean) (NL-IL12Rβ1 with IL23R; P630-TMR 0.457247 nM): 0.00447
BRET ratio with non-specific binding subtracted (Mean) (NL-IL12Rβ1 with IL23R; P630-TMR 1.37174 nM): 0.001281
BRET ratio with non-specific binding subtracted (Mean) (NL-IL12Rβ1 with IL23R; P630-TMR 4.11523 nM): 0.006719
BRET ratio with non-specific binding subtracted (Mean) (NL-IL12Rβ1 with IL23R; P630-TMR 12.3457 nM): 0.00665
BRET ratio with non-specific binding subtracted (Mean) (NL-IL12Rβ1 with IL23R; P630-TMR 37.037 nM): 0.009959
BRET ratio with non-specific binding subtracted (Mean) (NL-IL12Rβ1 with IL23R; P630-TMR 111.111 nM): 0.01927
BRET ratio with non-specific binding subtracted (Mean) (NL-IL12Rβ1 with IL23R; P630-TMR 1000 nM): 0.02313
BRET ratio with non-specific binding subtracted (Mean) (NL-IL12Rβ1 with IL23R; P630-TMR 3000 nM): 0.02294
Kd (NL-IL12Rβ1 with IL23R; NL-IL12Rβ1 and IL23R, mean ± SEM): 55.2 ± 10.5 nM
Bmax, fold lower than NL-IL23R with IL12Rβ1 (NL-IL12Rβ1 with IL23R; NL-IL12Rβ1 with IL23R): 42.53 fold
Specific binding BRET ratio (Mean) (NL-IL12Rβ1; P630-TMR 1.37174 nM): -0.001356
Specific binding BRET ratio (Mean) (NL-IL12Rβ1; P630-TMR 4.11523 nM): 0.00137
Specific binding BRET ratio (Mean) (NL-IL12Rβ1; P630-TMR 12.3457 nM): 0.0001891
Specific binding BRET ratio (Mean) (NL-IL12Rβ1; P630-TMR 37.037 nM): 0.00136
Specific binding BRET ratio (Mean) (NL-IL12Rβ1; P630-TMR 111.111 nM): 0.002083
Specific binding BRET ratio (Mean) (NL-IL12Rβ1; P630-TMR 1000 nM): 0.003104
Specific binding BRET ratio (Mean) (NL-IL12Rβ1; P630-TMR 3000 nM): 0.002137
Binding to C115Y mutant receptor (C115Y mutated IL23R): blocked specific binding
Mean NanoBRET binding signal (Figure 7 panel b) (C115Y mutated IL23R; [P630-TMR] 0.8 nM): -0.003437
Mean NanoBRET binding signal (Figure 7 panel b) (C115Y mutated IL23R; [P630-TMR] 4 nM): -0.009288
Mean NanoBRET binding signal (Figure 7 panel b) (C115Y mutated IL23R; [P630-TMR] 20 nM): -0.006407
Mean NanoBRET binding signal (Figure 7 panel b) (C115Y mutated IL23R; [P630-TMR] 100 nM): -0.004647
Mean NanoBRET binding signal (Figure 7 panel b) (C115Y mutated IL23R; [P630-TMR] 500 nM): -0.001312
Mean NanoBRET binding signal (Figure 7 panel b) (C115Y mutated IL23R; [P630-TMR] 2000 nM): 0.003535
SMILES: COc1ccc(C[C@H](NC(=O)[C@H]2NC(=O)[C@H](CCC(N)=O)NC(=O)[C@H](Cc3c[nH]c4ccccc34)NC(=O)[C@H]([C@@H](C)O)NC(=O)[C@H](CC(N)=O)NC(=O)[C@@H](NC(C)=O)C(C)(C)SSC2(C)C)C(=O)N[C@@H](Cc2ccc3ccccc3c2)C(=O)NC(C)(C)C(=O)N[C@@H](CCC(=O)O)C(=O)N[C@@H](CC(N)=O)C(=O)N[C@@H](CC(N)=O)C(=O)N[C@@H](CCCCNC(=O)c2ccc3c(c2)C(=O)OC32c3ccc(N(C)C)cc3Oc3cc(N(C)C)ccc32)C(N)=O)cc1 [P630-TMR] (Ac-[Pen]NTWQ[Pen]Y(Me)[2Nal][Aib]ENNK(5TAMRA)-NH2; disulfide 1-6)
Binding to cells expressing NL-IL12Rβ1 in isolation (NL-IL12Rβ1; absence of IL23R): no specific binding; also recorded: Did not bind
